Data on 28 molecules can be found in patent US9326973B2, “Hepatitis C virus inhibitors” (priority 2012, dated 2016).

pEC50: −log10 of the molar value. Read-outs that look alike come from different tables or passages of the source.

In the assay the test system is HCV replicon, genotype-1a variant with glutamine 30 changed to glutamate in the NS5A protein. The experiment in a line: microbe, parasite or virus in culture. It is filed as cell-based, HCV genotype 1a. The following applies: for Fold-Synergistic 1a (Q30E): HCV replicon genotype 1a Q30E (Q→E) variant, test compound titrated with an NS5A-targeting compound (BMS-790052 fixed at 200 nM), ranking of synergist activity; for pEC50: Hepatitis C virus. Summed up: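 Synergy was assessed by combining several fixed amounts of an NS5A-targeting compound with a titration of the second compound of interest.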

Consider `CC(C)(C)C(=O)N[C@H](c1nc(-c2ccc(-c3cnc(-c4c[nH]c([C@@H](NC(=O)C(C)(C)C)C(C)(C)C)n4)cn3)cc2)c[nH]1)C(C)(C)C` [Compound N-105], for which the “Fold-Synergistic 1a (Q30E)” value is reported as more than 100 fold. Same read-out and setting: the figure for `O=C(NC(c1nc(-c2ccc(-c3ccc(-c4c[nH]c(C(NC(=O)C5CCC(F)(F)CC5)C5(C(F)(F)F)CC5)n4)cc3)cc2)c[nH]1)C1(C(F)(F)F)CC1)C1CCC(F)(F)CC1` (stereo not drawn) [Compound N-109B] is more than 100 fold; for `CC(C)(C)[C@H](NC(=O)C1CCC(F)(F)C1)c1nc(-c2ccc(-c3ccc(-c4c[nH]c([C@@H](NC(=O)C5CCC(F)(F)C5)C(C)(C)C)n4)cc3)cc2)c[nH]1` (stereo partly drawn) [Compound N-111A] it is more than 100 fold. With `C=C1CCC(C(=O)N[C@H](c2nc(-c3ccc(-c4ccc(-c5c[nH]c([C@@H](NC(=O)C6CCC(=C)CC6)C(C)(C)C)n5)cc4)cc3)c[nH]2)C(C)(C)C)CC1` [Compound N-118], the “Fold-Synergistic 1a (Q30E)” value is listed as more than 100 fold.

As to `CC(C)(C)[C@H](NC(=O)CC1CC(F)(F)C1)c1nc(-c2ccc(-c3ccc(-c4c[nH]c([C@@H](NC(=O)CC5CC(F)(F)C5)C(C)(C)C)n4)cc3)cc2)c[nH]1` [Compound N-120], the “Fold-Synergistic 1a (Q30E)” value was more than 100 fold.

Regarding `CC(C)(C)[C@H](NC(=O)C1CCC(=C(F)F)CC1)c1nc(-c2ccc(-c3ccc(-c4c[nH]c([C@@H](NC(=O)C5CCC(=C(F)F)CC5)C(C)(C)C)n4)cc3)cc2)c[nH]1` (stereo partly drawn) [Compound N-121], the “Fold-Synergistic 1a (Q30E)” value is recorded as more than 100 fold. Turning to `CC(C)(C)[C@H](NC(=O)C1CCC2(CC1)CC2)c1nc(-c2ccc(-c3ccc(-c4c[nH]c([C@@H](NC(=O)C5CCC6(CC5)CC6)C(C)(C)C)n4)cc3)cc2)c[nH]1` (stereo partly drawn) [Compound N-123], the “Fold-Synergistic 1a (Q30E)” value is recorded as more than 100 fold. Turning to `COC(=O)N[C@H](C(=O)N[C@H](c1nc(-c2ccc3cc(-c4ccc(-c5cnc([C@@H](NC(=O)[C@@H](NC(=O)OC)C(C)C)C(C)C)[nH]5)cc4)ccc3c2)c[nH]1)C(C)C)C(C)C` [Compound P-1], the “Fold-Synergistic 1a (Q30E)” value is reported as less than 10 fold. Still for that read-out and setting: for `CC(C)CC(=O)N[C@H](c1nc(-c2ccc3cc(-c4ccc(-c5cnc([C@@H](NC(=O)CC(C)C)C(C)C)[nH]5)cc4)ccc3c2)c[nH]1)C(C)C` [Compound P-2] the value was more than 10 fold.

Regarding `COC(=O)N[C@H](C(=O)N[C@H](c1nc(-c2ccc(-c3ccc(-c4c[nH]c([C@@H](NC(=O)[C@@H](NC(=O)OC)C(C)C)C5CC5)n4)cc3)cc2)c[nH]1)C1CC1)C(C)C` [Compound P-3], the “Fold-Synergistic 1a (Q30E)” value was more than 10 fold.

For the molecule `CC(C)CC(=O)N[C@@H](CC(C)(C)C)c1nc(-c2ccc(-c3ccc(-c4c[nH]c([C@H](CC(C)(C)C)NC(=O)CC(C)C)n4)cc3)cc2)c[nH]1` [Compound P-4], the “Fold-Synergistic 1a (Q30E)” value is recorded as more than 10 fold. Regarding `CC(C)CC(=O)N[C@@H](c1ccccc1)c1nc(-c2ccc(-c3ccc(-c4c[nH]c([C@@H](NC(=O)CC(C)C)c5ccccc5)n4)cc3)cc2)c[nH]1` [Compound P-5], the “Fold-Synergistic 1a (Q30E)” value is on record as more than 100 fold. Consider `CC(C)CC(=O)N[C@@H](Cc1ccccc1)c1nc(-c2ccc(-c3ccc(-c4c[nH]c([C@H](Cc5ccccc5)NC(=O)CC(C)C)n4)cc3)cc2)c[nH]1` [Compound P-6], for which the “Fold-Synergistic 1a (Q30E)” value is on record as more than 10 fold.

As to `CC(C)CC(=O)N[C@@H](Cc1cccc2ccccc12)c1nc(-c2ccc(-c3ccc(-c4c[nH]c([C@H](Cc5cccc6ccccc56)NC(=O)CC(C)C)n4)cc3)cc2)c[nH]1` [Compound P-7], the “Fold-Synergistic 1a (Q30E)” value is reported as less than 10 fold. Same read-out and setting: for `CC(C)CC(=O)N[C@@H](Cc1ccc2ccccc2c1)c1nc(-c2ccc(-c3ccc(-c4c[nH]c([C@H](Cc5ccc6ccccc6c5)NC(=O)CC(C)C)n4)cc3)cc2)c[nH]1` [Compound P-8] the value was less than 10 fold. With `COC(C)(C)[C@H](NC(=O)C(C)(C)C)c1nc(-c2ccc(-c3ccc(-c4c[nH]c([C@@H](NC(=O)C(C)(C)C)C(C)(C)OC)n4)cc3)cc2)c[nH]1` [Compound P-9], the “Fold-Synergistic 1a (Q30E)” value was more than 100 fold.

Take `COC(C)(C)[C@H](NC(=O)C(C)(C)CF)c1nc(-c2ccc(-c3ccc(-c4c[nH]c([C@@H](NC(=O)C(C)(C)CF)C(C)(C)OC)n4)cc3)cc2)c[nH]1` [Compound P-10]: the “Fold-Synergistic 1a (Q30E)” value is more than 100 fold. Same read-out and setting: for `COc1cccc2c(C(=O)N3C(c4ncc(-c5ccc(-c6ccc(-c7cnc(C8C[C@H]9C[C@H]9N8C(=O)c8nc(Cl)cc9c(OC)cccc89)[nH]7)cc6)cc5)[nH]4)C[C@H]4C[C@H]43)nc(Cl)cc12` (stereo partly drawn) [Compound P-49] the value was more than 100 fold. The same measure, in the same setting: the figure for `CC(C)C(c1ncc(-c2ccc(-c3ccc(-c4cnc(C(C(C)C)N5CCCCC5=O)[nH]4)cc3)cc2)[nH]1)N1CCCCC1=O` (stereo not drawn) [Compound P-52] is more than 10 fold. As for `CC(C)CC(=O)N[C@H](c1ncc(-c2ccc(-c3ccc(-c4cnc([C@@H](NC(=O)CC(C)C)C(C)C)[nH]4)cc3)cc2)[nH]1)C(C)C` [Compound P-55], the pEC50 (in general, the EC50 on a negative log10 scale, so that one unit is a factor of ten) runs as follows: (genotype 1a Q30E replicon, BMS-790052 fixed at 200 nM, read-out: EC50 of P-55 in the presence of a fixed amount of BMS-790052) approximately 8.70; (genotype 1a Q30E replicon, compound alone, read-out: EC50, titrated singly) less than 6.70. Moreover, the “synergistic inhibitory effect with the combination” value (genotype 1a Q30E replicon, P-55 titrated with 200 nM BMS-790052) is reported as more than 100 fold.

Take `CC1([C@H](NC(=O)[C@H]2C[C@@H]3CC(F)(F)C[C@@H]3C2)c2nc(-c3ccc(-c4ccc(-c5c[nH]c([C@@H](NC(=O)[C@H]6C[C@@H]7CC(F)(F)C[C@@H]7C6)C6(C)CC6)n5)cc4)cc3)c[nH]2)CC1` [Compound P-140]: the “Fold-Synergistic 1a (Q30E)” value is recorded as more than 100 fold. The same measure, in the same setting: the figure for `CO[C@](C(=O)N[C@H](c1nc(-c2ccc(-c3ccc(-c4c[nH]c([C@@H](NC(=O)[C@@](OC)(c5ccccc5)C(F)(F)F)C(C)(C)C)n4)cc3)cc2)c[nH]1)C(C)(C)C)(c1ccccc1)C(F)(F)F` [Compound P-141] is more than 100 fold.

With `CC(C)(CF)C(=O)N[C@H](c1nc(-c2ccc(-c3ccc(-c4c[nH]c([C@@H](NC(=O)C(C)(C)CF)C5(C)CC5)n4)cc3)cc2)c[nH]1)C1(C)CC1` [Compound P-143], the “Fold-Synergistic 1a (Q30E)” value is recorded as more than 100 fold. Take `CC1([C@H](NC(=O)C(C)(C)C2(O)CCC(F)(F)CC2)c2nc(-c3ccc(-c4ccc(-c5c[nH]c([C@@H](NC(=O)C(C)(C)C6(O)CCC(F)(F)CC6)C6(C)CC6)n5)cc4)cc3)c[nH]2)CC1` [Compound P-144]: the “Fold-Synergistic 1a (Q30E)” value was more than 100 fold. Still for that read-out and setting: for `CC(C)(C)[C@H](NC(=O)C1(C2(O)CCC(F)(F)CC2)CC1)c1nc(-c2ccc(-c3ccc(-c4c[nH]c([C@@H](NC(=O)C5(C6(O)CCC(F)(F)CC6)CC5)C(C)(C)C)n4)cc3)cc2)c[nH]1` [Compound P-146] the value was more than 100 fold. As to `CC1([C@H](NC(=O)C2(C3(O)CCC(F)(F)CC3)CC2)c2nc(-c3ccc(-c4ccc(-c5c[nH]c([C@@H](NC(=O)C6(C7(O)CCC(F)(F)CC7)CC6)C6(C)CC6)n5)cc4)cc3)c[nH]2)CC1` [Compound P-147], the “Fold-Synergistic 1a (Q30E)” value is on record as more than 100 fold.

As for `CC(C)(C)[C@H](NC(=O)C1(C(=O)N2CCC(F)(F)CC2)CC1)c1nc(-c2ccc(-c3ccc(-c4c[nH]c([C@@H](NC(=O)C5(C(=O)N6CCC(F)(F)CC6)CC5)C(C)(C)C)n4)cc3)cc2)c[nH]1` [Compound P-148], the “Fold-Synergistic 1a (Q30E)” value was more than 100 fold. Still for that read-out and setting: the figure for `CC(C)(C)[C@H](NC(=O)[C@@]1(C)C[C@H]2CC(F)(F)C[C@H]2C1)c1nc(-c2ccc(-c3ccc(-c4c[nH]c([C@@H](NC(=O)[C@@]5(C)C[C@H]6CC(F)(F)C[C@H]6C5)C(C)(C)C)n4)cc3)cc2)c[nH]1` [Compound P-152] is more than 100 fold.
